Assay results reported in US8192962B2, “Processes for detecting toxic substances” (Daikin Industries, Ltd., priority 2001, dated 2012).

System: Energy system protein genes
Assay: DNA chip mRNA expression in yeast, energy system protein genes (Table 4)
Assay type: cell-based, Saccharomyces cerevisiae S288C
Method: Yeast (Saccharomyces cerevisiae S288C (α SUC2mal mel gap2 CUP1)) were incubated at 25° C. on YPD medium (yeast extract 1%, polypepton 2%, glucose 2%). One of toxic chemical substances was added to the cells at logarithmic growth phase, and the cells were further incubated for two hours. Cells were cultured without any chemical substance in the same condition, and were used as control. Concentrations of the chemical substances were defined to inhibit the growth of the yeast but not lead to death.
After completion of the incubation, the culture was centrifuged to collect the cells. To the cells, sodium acetate buffer (50 mM sodium acetate, 10 mM EDTA, 1% SDS) was added, and the mixture was shaken at 65° C. for five minutes, followed by returning to room temperature, and obtaining the supernatant, of which the procedures were repeated two times. To the supernatant, ½ amount of a solution of phenol/chloroform was added, and the mixture was centrifuged to give a supernatant, which was added with an equal amount of chloroform, and the mixture was centrifuged to give a supernatant. To the supernatant, an equal amount of isopropanol containing 0.3 M sodium acetate was added, and the mixture was allowed to stand at room temperature for 30 minutes, after which the mixture was centrifuged to give a sediment of the whole RNAs. Seventy % ethanol was added to the sediment, and the mixture was again centrifuged to give a sediment, which was then dried and dissolved in water. mRNA was isolated from the whole RNAs as followings. In view of the fact that a poly A chain is attached to the 3′ terminus of mRNA, a polynucleotide having a poly T structure which was immobilized on the surface of latex beads was used to trap the mRNA, and then the mRNA was washed and eluted with spine column (Oligotex-dT30<Super>mRNA Purification Kit, Takara). Reverse transcription of the mRNA was conducted with a reverse transcriptase (Super Script II Reverse Transcriptase; catalogue No. 18064-014, GibcoBRL) using fluorescence-labeled nucleotides to give cDNAs that were introduced with Cy3-dUTP or Cy5-dUTP during the reverse transcription.
The labeled cDNAs were dissolved in TE buffer (10mM Tris-HCl/1 mM EDTA, pH8.0), and the solution was dropped on the DNA chip containing the whole genes of yeast (DNA Chip Research Inc. Japan) so that the cDNAs were hybridized on the DNA chip at 65° C. for over 12 hours. The fluoresces intensity of the DNA chip was read with a scanner, and the ratio relative to the fluorescence intensity resulting from the absence of chemical substance was estimated as the following, which is shown in Tables 1 to 9: […]

Measured: The level of expressed mRNA in the presence of chemical substance/The level of expressed mRNA in the absence of chemical substance

CCCCCCCCCCCCc1ccc(S(=O)(=O)[O-])cc1.[Na+] [(17), sodium dodecylbenzosulfonate]
0.9: yeast gene YKL141W, cells incubated two hours with the chemical substance | yeast gene YLR044C, cells incubated two hours with the chemical substance | yeast gene YLR295C, cells incubated two hours with the chemical substance, 25° C., YPD medium | yeast gene YLR377C, cells incubated two hours with the chemical substance | yeast gene YMR267W, cells incubated two hours with the chemical substance, 25° C., YPD medium | yeast gene YOR142W, cells incubated two hours with the chemical substance
0.6: yeast gene YLR134W, cells incubated two hours with the chemical substance | yeast gene YMR205C, cells incubated two hours with the chemical substance
1.4: yeast gene YPL031C, cells incubated two hours with the chemical substance
1.0: yeast gene YKL016C, cells incubated two hours with the chemical substance | yeast gene YLR258W, cells incubated two hours with the chemical substance | yeast gene YLR354C, cells incubated two hours with the chemical substance | yeast gene YML120C, cells incubated two hours with the chemical substance | yeast gene YNL071W | yeast gene YNL241C | yeast gene YOR178C, cells incubated two hours with the chemical substance | yeast gene YOR388C, cells incubated two hours with the chemical substance | yeast gene YPL275W, cells incubated two hours with the chemical substance | yeast gene YPR184W, cells incubated two hours with the chemical substance
1.1: yeast gene YJR121W, cells incubated two hours with the chemical substance | yeast gene YKR097W | yeast gene YLL041C, cells incubated two hours with the chemical substance | yeast gene YMR323W, cells incubated two hours with the chemical substance | yeast gene YOL086C, cells incubated two hours with the chemical substance | yeast gene YPL262W, cells incubated two hours with the chemical substance | yeast gene YPL276W, cells incubated two hours with the chemical substance
0.7: yeast gene YML087C | yeast gene YMR261C, cells incubated two hours with the chemical substance | yeast gene YPR048W, cells incubated two hours with the chemical substance
9.1: yeast gene YPL088W
1.9: yeast gene YKR009C, cells incubated two hours with the chemical substance
0.8: yeast gene YKL148C, cells incubated two hours with the chemical substance | yeast gene YKR058W, cells incubated two hours with the chemical substance, 25° C., YPD medium | yeast gene YMR073C, cells incubated two hours with the chemical substance | yeast gene YMR118C | yeast gene YPL240C
1.6: yeast gene YOL165C | yeast gene YPL061W, cells incubated two hours with the chemical substance
1.3: yeast gene YJR155W | yeast gene YML129C, cells incubated two hours with the chemical substance
1.7: yeast gene YNL331C
2.9: yeast gene YLR284C, cells incubated two hours with the chemical substance
2.4: yeast gene YNL202W, cells incubated two hours with the chemical substance | yeast gene YPL171C
0.5: yeast gene YLR304C, cells incubated two hours with the chemical substance
1.2: yeast gene YJR048W | yeast gene YKL060C, cells incubated two hours with the chemical substance | yeast gene YLR038C, cells incubated two hours with the chemical substance | yeast gene YLR345W | yeast gene YLR395C, cells incubated two hours with the chemical substance
